Patent US8603493B2, “Carbosilane dendrimers, preparation method thereof and use of same” (Dendrico, S.L., priority 2005, dated 2013)
Entries after “also recorded” stand apart in the source; their conditions may differ.

Experiments:
[1] = tested on: U87-MG cells; assay: Toxicity in U-87-MG cells: tests with MTT
Experimental: A test with U-87-MG cells was performed, wherein the effect of the dendrimers on the viability of said lines was studied at different times. To do this, 15000 (24 hour incubations), 7000 (3 day incubations) or 1500 (7 day incubations) cells per well were plated in 96-well plates. The cells were incubated with different concentrations (1 μM, 5 μM and 10 μM) either NN dendrimer or NN16 dendrimer, during 24 hours, 3 days and 7 days. […] Two different positive controls were also used: cells treated with 7% DMSO and cells treated with 1% Triton X-100.
In the case of Superfect, three doses were tested, the optimum dose recommended by the manufacturer (2.5 μl), a lower dose (1.25 μl) and another higher dose (5 μl). With regard to Polyfect, specifically designed for adherent cells, the three doses tested were: optimum dose (0.6 μl), lower dose (0.3 μl) and higher dose (1.2 μl).
After each corresponding incubation time, a test was performed with MTT analogous to that described in Example 38. At the absorbance value obtained in the untreated cells (C−) it was given the value of 1 and the moiety of the absorbencies produced was used to refer to it.

[2] = molecular target: T1, Insulin (recombinant human insulin) (Homo sapiens, UniProt P01308); assay: Dendrimer-drug binding test (polyacrylamide gel delay), insulin; details: dendrimer 100 μM, insulin 1, 0.5, 0.1, 0.05 U, 37° C., 1 hour
T1 construct: Despite having its molecular weight (5825 g/mol) and establishing an average of 4 (−) charges; purchased Novo Nordisk Actrapid (trade name; no catalogue number given)
Experimental: (§1) The drugs chosen to perform the tests, all with at least one negative charge at physiological pH, were: • Methotrexate (sodium salt): • 1 charge (−) • Supplying laboratory: Almirall • Presentation: 25 mg/ml solution • Excipients: NaCl, NaOH, HCl, double-distilled H2O • Heparin (sodium salt) • Several charges (−) • Supplying laboratory: Rovi • Presentation: 10 mg/ml solution (1000 U) • Excipients: methyl p-oxybenzoate, propyl p-oxybenzoate, NaCl, double-distilled H2O • Insulin (recombinant human insulin) • 4 charges (−) • Supplying laboratory: Novo Nordisk • Product trade name: Actrapid • Presentation: 3.5 mg/ml solution (100 U) • Excipients: ZnCl2, HCl, NaOH, double-distilled H2O
(§2) The determination of the bond and complex formation between the dendrimer and the drug was performed by evaluating the delay in the polyacrylamide gel of the dendrimer bound to drug with respect to the free dendrimer: • Complex formation: It is performed in a final volume of the mixture of 30 μl, which is the maximum volume to load in the gel. To do this, one starts from the necessary quantity of dendrimer that provides a perfectly identifiable band by staining with silver nitrate in the gel once the electrophoresis has been carried out: 20 μl of a 100 μM solution, which corresponds to […] molecules. The drug is added in the 10 μl at different concentrations to produce the chosen (+) and (−) charge ratios, also determining the quantity of drug molecules present in the mixture. An incubation of said mixture was performed at 37° C. during 1 hour to give time for a more thermodynamically stable complex to form, although more time may be needed for its formation. Each complex is performed in duplicate. • Electrophoresis and gel staining: The gels used were 7.5% polyacrylamide/bisacrylamide, prepared with 1.5M Tris pH 8.8. Each electrophoresis was carried out at 90 volts during 4 hours, after which the gel was stained with silver nitrate and photographed. […]

[3] = tested on: SK-N-MC cells; assay: Proliferation of SK-N-MC cells incubated with dendrimers (MTS); type: cell-based; details: 3 days
Experimental: (§3) The tests were performed with the dendrimers NN (2G-[Si(O(CH2)2N(Me)(CH2)2NMe3^+I^−)]8 (26)) and NN16 (2G-[Si(O(CH2)2N^+(Me)2(CH2)2NMe3^+2I^−)]8 (36)). The transfection tests were performed with the anti-rev RF ODN (SEQ ID NO:2). The culture medium was DMEM+10% bovine foetal serum.
(§4) Different experiments were performed, one with SK-N-MC cells and another with U-87-MG cells, which studied the effect of the dendrimers on the proliferation of said lines. For this, 7000 cells/well were plated of the corresponding in a 96-well dish. […] As positive proliferation control, cells were incubated with 20 μg/ml of LPS and, as positive death induction control, cells were used incubated with 7% DMSO. As negative control untreated cells were used.

[4] = Dendrimer-drug binding test (polyacrylamide gel delay), methotrexate; details: dendrimer 100 μM, charge ratios 1+/1− to 8+/1−, 37° C., 1 hour
Experimental: as §1, §2

[5] = tested on: U87-MG cells; assay: Transfection of U87-MG cells mediated by dendrimers (flow cytometry); type: cell-based; details: dendriplex with anti-rev oligonucleotide 250 nM, − charge/+ charge ratio 1:8, 24 hours
Experimental: (§5) 100000 cells/well were plated of the corresponding cell line in a 24-well plate with 500 μl of medium.
(§6) Dendriplexes were formed with dendrimers NN and NN16 and the fluorescent anti-rev antisense oligonucleotide in a total volume of 75 μl of medium without serum, wherein the anti-rev oligonucleotide was mixed at a concentration 250 nM and the corresponding dendrimer in different proportions, so that different − charge/+ charge ratios were obtained: 1:1, 1:2, 1:4 and 1:8. The mixture was incubated during half an hour at ambient temperature and then it was added to the corresponding well to incubate the cells with dendriplexes.
(§7) After 24 hours of incubation, the cells were removed from the well, they were washed twice with PBS, they were incubated for 1 minute with acid glycine to remove the possible moieties of dendriplexes which may have remained adhered on the cell membrane, and a final wash was performed with PBS. Finally, the cells were resuspended in 500 μl of PBS and the quantity of fluorescent oligonucleotide inside the cell was quantified by flow cytometry.

[6] = tested on: U87-MG cells; assay: Toxicity in U-87-MG cells: LDH in the supernatant; details: 24 hours
From the text: The concentrations and volumes of each one of these compounds were the same used in the test performed with MTT. The commercial kit Cytotoxicity Detection KitPLUS (LDH), from Roche Applied Science was used to determine lactate dehydrogenase, following the manufacturer's instructions.

[7] = tested on: SK-N-MC cells; assay: Transfection of SK-N-MC cells mediated by dendrimers (flow cytometry); type: cell-based; details: dendriplex with anti-rev oligonucleotide 250 nM, − charge/+ charge ratio 1:4, 24 hours
Experimental: as §5, §6, §7

[8] = tested on: SK-N-MC cells; assay: Toxicity in SK-N-MC cells: test with MTT; type: cell-based; details: 24 hours, 1, 5, 10 μM
[9] = Dendrimer-drug binding test (polyacrylamide gel delay), heparin; details: dendrimer 100 μM, heparin 10, 1, 0.5, 0.1 U, 37° C., 1 hour
Experimental: as §1, §2

[10] = tested on: U87-MG cells; assay: Proliferation of U-87-MG cells incubated with dendrimers (MTS); type: cell-based; details: 1 μM, 5 μM and 10 μM, 3 days
Experimental: as §3, §4

T1 sequence (P01308 25-54 limits assumed): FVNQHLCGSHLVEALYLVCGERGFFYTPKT
T1 sequence (P01308 90-110 limits assumed): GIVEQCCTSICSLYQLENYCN

In the case of `C[N+](C)(C)CC[N+](C)(C)CCO[Si](C)(C)CCC[Si](C)(CCC[Si](CCC[Si](C)(CCC[Si](C)(C)OCC[N+](C)(C)CC[N+](C)(C)C)CCC[Si](C)(C)OCC[N+](C)(C)CC[N+](C)(C)C)(CCC[Si](C)(CCC[Si](C)(C)OCC[N+](C)(C)CC[N+](C)(C)C)CCC[Si](C)(C)OCC[N+](C)(C)CC[N+](C)(C)C)CCC[Si](C)(CCC[Si](C)(C)OCC[N+](C)(C)CC[N+](C)(C)C)CCC[Si](C)(C)OCC[N+](C)(C)CC[N+](C)(C)C)CCC[Si](C)(C)OCC[N+](C)(C)CC[N+](C)(C)C` [NN16, 2G-[Si(O(CH2)2N^+(Me)2(CH2)2NMe3^+2I^−)]8], the “viability (MTT), untreated cells (C−) = 1” value ([1]; 3 days, any one of the three concentrations (1, 5, 10 μM)) is reported as about 0.8, the “viability (MTT), untreated cells (C−) = 1” value ([1]; 7 days, 10 μM) is reported as 0.7 and the “dendrimer-insulin complex formation (delay in gel)” value [2] is reported as “complex is formed”. The “effect on cell proliferation (MTS)” value ([3]; 1 μM and 5 μM) was “do not produce toxicity nor cell proliferation”, the “effect on cell proliferation (MTS)” value ([3]; 10 μM) was “toxic” and the “dendrimer-methotrexate complex formation (delay in gel)” value [4] was “complex is formed”. The “percentage of cells transfected” value [5] was 97.8%, the “cytotoxicity (LDH), comparison” value [6] was “greater cytotoxicity as their concentration increases; also recorded: less toxic than NN” and the “percentage of cells transfected (maximum transfection)” value [7] was 82.3%. The “toxicity (MTT), comparison” value [8] was “least toxicity”, the “dendrimer-heparin complex formation (delay in gel)” value [9] was “complex is formed” and the “effect on cell proliferation (MTS)” value [10] was “neither induce proliferation nor cell death”.
